Patent US20260216170A1, “TETRAHYDROISOQUINOLINE HETEROBIFUNCTIONAL BCL-XL DEGRADERS” (Treeline Biosciences, Inc., priority 2023, published 2026)

Target: T1, Human BCL-XL protein (N-terminal HiBiT tagged BCL-XL expressed in HT1080 cells) (Homo sapiens, UniProt Q07817)
T1 construct: expressed in transfected cells; host or cells: HT-1080 (ATCC CCL-121), stably transduced with lentivirus pLV-UBC-N-HiBiT-BCL-XL-PGK-puro and selected with puromycin
Experiment: HiBiT Based Degradation Assay
Format: cell-based
Conditions: 24 hours incubation; for DC50: BCL-XL degradation, HT1080 cells expressing N-HiBiT-BCL-XL, normalized with DMSO control, geometric mean for multiple data points, read-out: EC50 (24 h); for Ymin (24 h): bottom of BCL-XL degradation curve (remaining HiBiT-BCL-XL signal vs DMSO control), HT1080 cells
How it was run: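 BCL-XL degradation was read as Nano-Glo HiBiT lytic luminescence relative to DMSO after a 24 h compound treatment of HT1080 cells carrying stably integrated N-HiBiT-BCL-XL. EC50 values come from four-parameter logistic curves, with the hook-curve minimum fixed as bottom, and are geometric means where tested repeatedly.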

T1 sequence (Q07817 whole entry): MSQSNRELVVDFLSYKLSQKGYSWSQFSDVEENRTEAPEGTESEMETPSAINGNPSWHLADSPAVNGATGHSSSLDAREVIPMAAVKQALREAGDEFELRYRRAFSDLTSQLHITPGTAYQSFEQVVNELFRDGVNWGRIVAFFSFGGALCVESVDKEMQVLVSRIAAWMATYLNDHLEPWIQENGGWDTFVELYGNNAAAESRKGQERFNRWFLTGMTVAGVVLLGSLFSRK

| DC50 | Ymin (24 h) | Structure (SMILES) |
| --- | --- | --- |
| 10 to 100 nM | C (50% ≤ Ymin < 70%) | Cc1cc(OCCCC2CCN(Cc3nc4ccc(C5CCC(=O)NC5=O)cc4[nH]3)CC2)ccc1-c1ccc(N2CCc3cccc(C(=O)Nc4nc5ccccc5s4)c3C2)nc1C(=O)O (centres unmarked) [Compound 2003] |
| < 10 nM | A (Ymin < 30%) | Cc1cc(OC[C@H]2C[C@@H]2C2CCN(CC(=O)Nc3ccc4c(C5CCC(=O)NC5=O)nn(C)c4c3)CC2)ccc1-c1ccc(N2CCc3cccc(C(=O)Nc4nc5ccccc5s4)c3C2)nc1C(=O)O (relative stereo) [Compound 1003a, 6-(8-(benzo[d]thiazol-2-ylcarbamoyl)-3,4-dihydroisoquinolin-2(1H)-yl)-3-(4-(((1S,2R)-2-(1-(2-((3-(2,6-dioxopiperidin-3-yl)-1-methyl-1H-indazol-6-yl)amino)-2-oxoethyl)piperidin-4-yl)cyclopropyl)methoxy)-2-methylphenyl)picolinic acid] |
| < 10 nM | B (30% ≤ Ymin < 50%) | Cn1nc(C2CCC(=O)NC2=O)c2ccc(NC(=O)CN3CCC4(CC3)CC(Oc3cccc(-c5ccc(N6CCc7ccnc(C(=O)Nc8nc9ccccc9s8)c7C6)nc5C(=O)O)c3C(F)(F)F)C4)nc21 (centres unmarked) [Compound 202, 6-(8-(benzo[d]thiazol-2-ylcarbamoyl)-3,4-dihydro-2,7-naphthyridin-2(1H)-yl)-3-(3-((7-(2-((3-(2,6-dioxopiperidin-3-yl)-1-methyl-1H-pyrazolo[3,4-b]pyridin-6-yl)amino)-2-oxoethyl)-7-azaspiro[3.5]nonan-2-yl)oxy)-2-(trifluoromethyl)phenyl)picolinic acid] |
| 10 to 100 nM | B (30% ≤ Ymin < 50%) | Cc1cc(OCC2CC3(CCN(CC(=O)Nc4cc5c(cc4F)c(C4CCC(=O)NC4=O)nn5C)CC3)C2)ccc1-c1ccc(N2CCc3cccc(C(=O)Nc4nc5ccccc5s4)c3C2)nc1C(=O)O (centres unmarked) [Compound 123] |
| 10 to 100 nM | A (Ymin < 30%) | COc1c(NC(=O)CN2CCC(CCCOc3ccc(-c4ccc(N5CCc6cccc(C(=O)Nc7nc8ccccc8s7)c6C5)nc4C(=O)O)c(F)c3)CC2)ccc2c(C3CCC(=O)NC3=O)nn(C)c12 (centres unmarked) [Compound 201] |
| 10 to 100 nM | B (30% ≤ Ymin < 50%) | Cc1c(OCCC[C@@H]2CCN(CC(=O)Nc3ccc4c(C5CCC(=O)NC5=O)nn(C)c4c3)[C@@H](C)C2)cccc1-c1ccc(N2CCc3cccc(C(=O)Nc4nc5ccccc5s4)c3C2)nc1C(=O)O (some centres unmarked) [Compound 208a] |
| 1000 to 10000 nM | C (50% ≤ Ymin < 70%) | Cc1c(OCC2CC3(CCN(CC(=O)Nc4cc5c(cc4C(F)(F)F)c(C4CCC(=O)NC4=O)nn5C)CC3)C2)cccc1-c1ccc(N2CCc3cccc(C(=O)Nc4nc5ccccc5s4)c3C2)nc1C(=O)O (centres unmarked) [Compound 139] |
| < 10 nM | A (Ymin < 30%) | Cc1cc(OC[C@H]2C[C@H]2C2CCN(CC(=O)Nc3ccc4c(C5CCC(=O)NC5=O)nn(C)c4c3)CC2)ccc1-c1ccc(N2CCc3cccc(C(=O)Nc4nc5ccccc5s4)c3C2)nc1C(=O)O (single isomer, unassigned) [Compound 1003c] |
| < 10 nM | B (30% ≤ Ymin < 50%) | Cn1nc(C2CCC(=O)NC2=O)c2ccc(NC(=O)CN3CCC4(CC3)CC(Oc3cccc(-c5ccc(N6CCc7ccnc(C(=O)Nc8nc9ccccc9s8)c7C6)nc5C(=O)O)c3C(F)(F)F)C4)c(F)c21 (centres unmarked) [Compound 214] |
| < 10 nM | B (30% ≤ Ymin < 50%) | Cn1nc(C2CCC(=O)NC2=O)c2ccc(NC(=O)CN3CCN(CCCO[C@H]4CC[C@H](c5ccc(N6CCc7cccc(C(=O)Nc8nc9ccccc9s8)c7C6)nc5C(=O)O)CC4)CC3)cc21 (some centres unmarked) [Compound 2001a] |
| 10 to 100 nM | B (30% ≤ Ymin < 50%) | Cc1cc(O[C@H](C)CCC2CCN(CC(=O)Nc3ccc4c(C5CCC(=O)NC5=O)nn(C)c4n3)CC2)ccc1-c1ccc(N2CCc3cccc(C(=O)Nc4nc5ccccc5s4)c3C2)nc1C(=O)O (single isomer, unassigned) [Compound 225b] |
| < 10 nM | B (30% ≤ Ymin < 50%) | Cn1nc(C2CCC(=O)NC2=O)c2ccc(NC(=O)CN3CCC4(CC3)CC(Oc3cccc(-c5ccc(N6CCc7cccc(C(=O)Nc8nc9ccccc9s8)c7C6)nc5C(=O)O)c3C(F)(F)F)C4)nc21 (centres unmarked) [Compound 192, 6-(8-(benzo[d]thiazol-2-ylcarbamoyl)-3,4-dihydroisoquinolin-2(1H)-yl)-3-(3-((7-(2-((3-(2,6-dioxopiperidin-3-yl)-1-methyl-1H-pyrazolo[3,4-b]pyridin-6-yl)amino)-2-oxoethyl)-7-azaspiro[3.5]nonan-2-yl)oxy)-2-(trifluoromethyl)phenyl)picolinic acid] |
| 10 to 100 nM | A (Ymin < 30%) | C[C@H]1C[C@@H](CCCOc2ccc(-c3ccc(N4CCc5cccc(C(=O)Nc6nc7ccccc7s6)c5C4)nc3C(=O)O)c(C(F)(F)F)c2)CCN1CC(=O)Nc1ccc2c(C3CCC(=O)NC3=O)nn(C)c2c1 (stereo partly drawn) [Compound 209a, 6-(8-(benzo[d]thiazol-2-ylcarbamoyl)-3,4-dihydroisoquinolin-2(1H)-yl)-3-(4-(3-((2S,4S)-1-(2-((3-(2,6-dioxopiperidin-3-yl)-1-methyl-1H-indazol-6-yl)amino)-2-oxoethyl)-2-methylpiperidin-4-yl)propoxy)-2-(trifluoromethyl)phenyl)picolinic acid] |
| 10 to 100 nM | B (30% ≤ Ymin < 50%) | Cc1c(OC[C@@H]2C[C@H]2C2CCN(CC(=O)Nc3ccc4c(C5CCC(=O)NC5=O)nn(C)c4c3)CC2)cccc1-c1ccc(N2CCc3cccc(C(=O)Nc4nc5ccccc5s4)c3C2)nc1C(=O)O (single isomer, unassigned) [Compound 1001a] |
| 10 to 100 nM | C (50% ≤ Ymin < 70%) | Cn1nc(C2CCC(=O)NC2=O)c2ccc(NC(=O)CN3CCC(CCCOc4cccc(-c5ccc(N6CCc7cccc(C(=O)Nc8nc9ccccc9s8)c7C6)nc5C(=O)O)c4C(F)(F)F)CC3)nc21 (centres unmarked) [Compound 145] |
| < 10 nM | B (30% ≤ Ymin < 50%) | Cc1c(OC2CC3(CCN(CC(=O)Nc4ccc5c(C6CCC(=O)NC6=O)nn(C)c5n4)CC3)C2)cccc1-c1ccc(N2CCc3cccc(C(=O)Nc4nc5ccccc5s4)c3C2)nc1C(=O)O (centres unmarked) [Compound 194, 6-(8-(benzo[d]thiazol-2-ylcarbamoyl)-3,4-dihydroisoquinolin-2(1H)-yl)-3-(3-((7-(2-((3-(2,6-dioxopiperidin-3-yl)-1-methyl-1H-pyrazolo[3,4-b]pyridin-6-yl)amino)-2-oxoethyl)-7-azaspiro[3.5]nonan-2-yl)oxy)-2-methylphenyl)picolinic acid] |
| 10 to 100 nM | C (50% ≤ Ymin < 70%) | Cc1c(-c2ccc(N3CCc4cccc(C(=O)Nc5nc6ccccc6s5)c4C3)nc2C(=O)O)cccc1N(C)CCCC1CCN(CC(=O)Nc2ccc3c(C4CCC(=O)NC4=O)nn(C)c3c2)CC1 (centres unmarked) [Compound 220] |
| 10 to 100 nM | B (30% ≤ Ymin < 50%) | C[C@H]1C[C@H](CCCOc2ccc(-c3ccc(N4CCc5cccc(C(=O)Nc6nc7ccccc7s6)c5C4)nc3C(=O)O)c(C(F)(F)F)c2)CCN1CC(=O)Nc1ccc2c(C3CCC(=O)NC3=O)nn(C)c2c1 (some centres unmarked) [Compound 209b] |
| < 10 nM | A (Ymin < 30%) | Cc1cc(OCCC[C@H]2CCN(CC(=O)Nc3ccc4c(C5CCC(=O)NC5=O)nn(C)c4c3)[C@H](C)C2)ccc1-c1ccc(N2CCc3ccnc(C(=O)Nc4nc5ccccc5s4)c3C2)nc1C(=O)O (some centres unmarked) [Compound 219c] |
| < 10 nM | A (Ymin < 30%) | Cc1c(OCC2CC3(CCN(CCCc4ccc5c(C6CCC(=O)NC6=O)nn(C)c5c4)CC3)C2)cccc1-c1ccc(N2CCc3cccc(C(=O)Nc4nc5ccccc5s4)c3C2)nc1C(=O)O (centres unmarked) [Compound 149, 6-[8-(1,3-benzothiazol-2-ylcarbamoyl)-3,4-dihydro-1H-isoquinolin-2-yl]-3-[3-[[7-[3-[3-(2,6-dioxo-3-piperidyl)-1-methyl-indazol-6-yl]propyl]-7-azaspiro[3.5]nonan-2-yl]methoxy]-2-methyl-phenyl]pyridine-2-carboxylic acid] |
| 100 to 1000 nM | C (50% ≤ Ymin < 70%) | COc1cc2c(C3CCC(=O)NC3=O)nn(C)c2cc1NC(=O)CN1CCC2(CC1)CC(COc1cccc(-c3ccc(N4CCc5cccc(C(=O)Nc6nc7ccccc7s6)c5C4)nc3C(=O)O)c1C)C2 (centres unmarked) [Compound 126] |
| < 10 nM | A (Ymin < 30%) | Cc1cc(OCCC[C@@H]2CCN(CC(=O)Nc3ccc4c(C5CCC(=O)NC5=O)nn(C)c4c3)[C@@H](C)C2)ccc1-c1ccc(N2CCc3ccnc(C(=O)Nc4nc5ccccc5s4)c3C2)nc1C(=O)O (some centres unmarked) [Compound 219a] |
| < 10 nM | B (30% ≤ Ymin < 50%) | Cn1nc(C2CCC(=O)NC2=O)c2ccc(NC(=O)CN3CCC4(CCC(Oc5ccc(-c6ccc(N7CCc8cccc(C(=O)Nc9nc%10ccccc%10s9)c8C7)nc6C(=O)O)c(C(F)(F)F)c5)CC4)CC3)cc21 (centres unmarked) [Compound 197] |

| Structure (SMILES) | DC50 | Ymin (24 h) |
| --- | --- | --- |
| Cc1c(OCCC[C@H]2[C@@H]3C[C@H]2CN(CC(=O)Nc2ccc4c(C5CCC(=O)NC5=O)nn(C)c4c2)C3)cccc1-c1ccc(N2CCc3cccc(C(=O)Nc4nc5ccccc5s4)c3C2)nc1C(=O)O (some centres unmarked) [Compound 176a] | 10 to 100 nM | C (50% ≤ Ymin < 70%) |
| Cc1cc(OCCCCC2CCN(CC(=O)Nc3ccc4c(C5CCC(=O)NC5=O)nn(C)c4c3)CC2)ccc1-c1ccc(N2CCc3cccc(C(=O)Nc4nc5ccccc5s4)c3C2)nc1C(=O)O (centres unmarked) [Compound 116, 6-[8-(1,3-benzothiazol-2-ylcarbamoyl)-3,4-dihydro-1H-isoquinolin-2-yl]-3-[4-[4-[1-[2-[[3-(2,6-dioxo-3-piperidyl)-1-methyl-indazol-6-yl]amino]-2-oxo-ethyl]-4-piperidyl]butoxy]-2-methyl-phenyl]pyridine-2-carboxylic acid] | < 10 nM | B (30% ≤ Ymin < 50%) |
